Earlier results as cited in patent US20200031811A1, “SUBSTITUTED MONO- AND POLYAZANAPHTHALENE DERIVATIVES AND THEIR USE” (Basilea Pharmaceutica International AG, priority 2015, published 2020).

Tests used:
[1] = tested on: B16 melanoma pulmonary metastatic lesions; details: in vivo; cited from earlier work
[2] = tested on: HCT116 colon carcinoma xenograft; details: nude mice; cited from earlier work

For `CC(=O)C1=C(O)C=C2Oc3c(C(N)=O)c(O)cc(O)c3[C@]2(C)C1=O` [cercosporamidc], the “outgrowth of B16 melanoma pulmonary metastatic lesions” value [1] is given as “reduceing the outgrowth” and the “growth of a HCT116 colon carcinoma xenograft model” value [2] is given as “inhibiting the growth”.
